We go through 1 compound from patent publication US20250205195A1, “BENZYLOXY-BENZYLAMINYL AMINO ACID DERIVATIVE FOR ADJUSTING TSLP/TSLPR SIGNAL TRANSMISSION” (AMTIXBIO CO., LTD., priority 2021, published 2025).

Experiment [1] has as its system interleukin-6 (IL-6). The experiment can be described thus: TNF-α/IFN-induced interleukin-6 in HaCaT keratinocytes (ELISA). In kind it is cell-based, human. As to conditions: HaCaT cells, 0, 1, 2, 4 and 8 µg/mL, TNF-α and IFN 50 ng/mL each, 24 h. The protocol: Furthermore, human keratinocyte HaCaT cells (obtained from the Korean Cell Line Bank) were seeded at an initial density of 2×10^5 cells/well in a 12-well plate and cultured at 37° C. for 16 to 24 hours. The compound 27 of the present invention was then added to the HaCaT cell culture medium at final concentrations of 0, 1, 2, 4, and 8 µg/mL and the cells were cultured at 37° C. for 1 hour. Subsequently, to induce interleukin-6, the culture medium was treated with TNF-α (Sigma-Aldrich, USA) and […] (Sigma-Aldrich, USA) to final concentrations of 50 ng/mL each, and the cells were cultured for an additional 24 hours at 37° C. Next, the culture supernatant was collected, and the amount of induced interleukin-6 from HaCaT cells was determined using an ELISA kit (LABIS KOMA, South Korea) according to the manufacturer's instructions.
Human keratinocyte HaCaT cells (obtained from the Korean Cell Line Bank) were seeded in a 12-well plate at an initial density of 2×10^5 cells/well and cultured at 37° C. for 16 to 24 hours. […] The culture supernatant was collected, and the amount of induced interleukin-6 from HaCaT cells was determined using an ELISA kit (LABIS KOMA, South Korea) according to the manufacturer's instructions.

Experiment [2] deals with skin-specific T cells. The experiment can be described thus: FACS analysis of T cell fractions in skin tissue isolated from atopic dermatitis patients. As to conditions: patient skin tissue, 16 g/mL, 8 g/mL. In kind it is cell-based, human. The source says:
For tissues isolated from the skin of atopic dermatitis patients (Yonsei Severance Hospital, South Korea) followed by the treatment of the compound 27 of the present invention, T cell fractions were compared, and the results are presented in FIG. 16 (Data are shown as mean standard deviation (SD). ** P<0.01, * P<0.05).
A general note: In flow cytometry, cells or beads pass a laser one at a time.

Experiment [3] relates to p-STAT5. Put plainly: TSLP-induced p-STAT5 in bone marrow-derived dendritic cells (BMDCs), Western blot. In kind it is cell-based, mouse. The protocol: C57BL/6J mice (JA BIO, DBL-0011, male, 6-12 weeks old) were euthanized, and femurs and tibias were separated after cervical dislocation and then were stored in PBS (HyClone, Cat No. SH30028.02). After removing tissues as much as possible from femurs and tibias, both ends of the bones were cut vertically, and bone marrow was quickly collected with a 5 mL syringe (Korea Vaccine, 5 cc syringe 22 g). After centrifugation at 1800 rpm for 3 minutes, the supernatant was discarded, 10 mL PBS was added to resuspend the cells, and the mixture was filtered through a 100 µm cell strainer. […]
The obtained BMDCs were pre-treated with compound 27, Jak1 inhibitor (Filgotinib, Selleck, Cat No. JS7605), or Jak2 inhibitor (SD-1029, Sigma, Cat No. 573098) 30 minutes or 1 hour prior to treatment. […] After quantifying the protein using the BCA protein assay kit (Thermo, Cat No. 23225), 5×SDS-PAGE loading buffer (Biosesang, Cat No. SF2002-110-00) was added, boiled for 5 minutes at 103° C., and stored at −20° C. […]
BR1706516)] for 2 hours at room temperature. After washing with TBS-T, the membrane was incubated with ECL solution (Thermo, Cat No. 32209), and protein bands were detected using the iBright imaging system (Invitrogen, Model No. FL1500). Each band intensity was measured using ImageJ software (version 1.38; National Institutes of Health), and the pSTAT5/STAT ratio was calculated. […]
On the technique in general: In western blotting, separated proteins are transferred to a membrane and probed.

Turning to `CCC(NC)C(=O)NCc1ccc(OCc2ccc(C(F)(F)F)cc2)cc1` (racemic) [Compound 27, (R)/(S)-2-(methylamino)-N-(4-((4-trifluoromethyl)benzyl)oxy)benzyl)butanamide], in experiment [1], the “amount of induced interleukin-6” value is on record as “decreased”. In experiment [2], the “CD69+ T cells and CD103+ T cells” value is “remarkable reduction”; the “proportion of skin-specific T cells” value is “concentration-dependent significant decrease”. Besides, the “reduction in p-STAT5” value in experiment [3] (2 pM, compared to the TSLP-treated group) is 51%. For the same compound, the “p-STAT5 (pSTAT5/STAT ratio)” value in experiment [3] (BMDCs, TSLP treatment) is “significantly reduced”.
